Values joined by “and” are separate entries in the source; they are usually repeats but may differ in a detail not shown here. Identical values can stand only once.
Tested on: GEMS receptors with CBPA11 (BclXL–LD3 and BclXLhigh variants), STAT3-driven SEAP in HEK293T cells
Assay: GEMS SEAP reporter assay, CBPA11 (BclXLhigh, LD3-v and BclXL-v variants) with A-1155463
Assay type: cell-based
Design: key to Raw data (SEAP) / SEAP, replicate values / Raw data of Figure 5b / Raw data Figure 5e / Raw data of Independent repeat of CBPA11-v1 vs CBPA11-v1-LD3v3 / Raw data of Independent repeat of CBPA11-v3 vs CBPA11-v3-LD3v3 / Raw data of Figure 5b, CBPA11-v1-LD3v3 (SEAP reporter raw value, single replicate) / Raw data of Figure 5b, CBPA11-v1 (SEAP reporter raw value, single replicate): SEAP activity in U/L in culture supernatant
Source text: To rationally design a CBP responding to a chemical input, we used BclXL as the druglow receptor, LD3 as the designed binder and a designed BclXL variant as the drughigh receptor (referred to as BclXLhigh) to construct a CBP responsive to BclXL inhibitors (Fig. 4a). To design BclXLhigh, we used a multistate design computational protocol described elsewhere[26] […] Thus, BclXLhigh-v(1–3) were chosen as the functional drughigh receptors, resulting in three A-1155463-controlled CBPs (referred to as CBPA11-v(1–3)) (Fig. 4c–e).
HEK293T cells were seeded in a 96-well plate 24 h before transfection. The transfection mix in each well consisted of 3 ng of constitutive human CMV promoter driven mammalian STAT3 expression vector (PhCMV-STAT3-pA), 30 ng of STAT3-induced reporter expression (OStat3-PhCMVmin-SEAP-pA) and 50 ng of expression vectors for each GEMS receptor chain (PSV40-IgK-(drughigh receptor)-EpoRm-IL-6RBm-pA and PSV40-IgK-(druglow receptor-GGGGSX3-LD3)-EpoRm-IL-6RBm-pA). For the specific drughigh receptor and druglow receptor used in the different cellular assays, they are indicated as wild type or with mutations. Then, plasmid DNA was mixed with 50 μl opti-MEM (Thermo Fisher) and 600 ng of polyethyleneimine (Polysciences, catalog no. 24765-1). For drug treatment experiments, drugs were added 12 h post-transfection and incubated with cells for 24 h before the SEAP reporter detection assay.
SEAP activity (U l^−1) in cell culture supernatants was quantified by kinetic measurements at 405 nm (1 minute per measurement for 30 cycles) of absorbance increase due to phosphatase-mediated hydrolysis of para-nitrophenyl phosphate (pNPP).
Binding affinities of SPR drug competition assays were calculated using three-parameter nonlinear regression in GraphPad Prism (v.8.3.0). Representative data of cell assays are presented as individual values and mean values (bars). n = 3 refers to biological replicates. All IC50 or EC50 values of cell assays reported were calculated using four-parameter nonlinear regression ± s.d. Bandpass features of cutoff concentrations and Bandwidth90% were estimated based on the curve fitted using bell-shaped curve nonlinear regression in GraphPad Prism (v.8.3.0). […]
Supplementary Figure 4: Design, screening and validation of BclXLhigh variants. a) Screening of BclXLhigh variants in the GEMS platform. […]
Dissociation constant measurement of BclXLhigh-v(1-3) and LD3. Equilibrium curves are fitted using […]
BclXLhigh-v1 (purple), BclXLhigh-v2 (blue), […]
a) Bcl2high-based bandpass filter designs were developed and to respond to different concentrations of […]
corresponding inhibitor. c) Screening of Bcl2high-based bandpass filter variants in the GEMS platform.
The designed binder LD3 was fused to the druglow-receptor (PSV40-IgK-Bcl2-LD3-EpoRm-IL-6RBm-pA) in one EpoR chain and Bcl2high variants with the insensitive Bcl2 (iBcl2) as control in the other EpoR chain (PSV40-IgK-Bcl2high-EpoRm-IL-6RBm-pA). HEK293T cells were transfected with indicated […]
the mean of six biological replicates ± s.d., overlaid with a scatter dot plot of the original data points.
(1 picture or pasted object on this page, not shown here)
Supplementary Figure 6: Binding affinities and drug resistances of Bcl2high-v(2,4,5) assessed by […]
a) Measurement of dissociation constants for Bcl2high-v(2,4,5) and LD3 interactions. Equilibrium curves […]
Bcl2high-v(2,4,5) measured by SPR. 5 μM of Bcl2 or indicated variants were mixed with 10 μM of […]
Bcl2high-v2 (red), Bcl2high-v4
Supplementary Figure 7: Screening of LD3 variants in CBPA11-v(1-3) and raw data of CBPA11-v(1,3) with LD3-v3 variant. a-c) Screening of LD3 and LD3-v(1-3) variants in complex with BclXL for more sensitive CBPA11-v1 (a), CBPA11-v2 (b), CBPA11-v3 (c) in the GEMS platform. The LD3 variants replaced the role of LD3 (PSV40-IgK-BclXL-LD3-v(1-3)-EpoRm-IL-6RBm-pA) in one EpoR chain and BclXLhigh-v(1-3) in the other EpoR chain (PSV40-IgK-BclXLhigh-V(1-3)-EpoRm-IL-6RBm-pA). HEK293T cells were transfected with […]

[1] = CBPA11-v3-BclXLv2, A-1155463 10000 nM
[2] = CBPA11-v3-LD3v3, A-1155463 1 nM
[3] = CBPA11-v3-LD3v3, A-1155463 3.18 nM
[4] = CBPA11-v3-LD3v3, A-1155463 10 nM
[5] = CBPA11-v3-LD3v3, A-1155463 31.8 nM
[6] = CBPA11-v3-LD3v3, A-1155463 100 nM
[7] = CBPA11-v3-LD3v3, A-1155463 318 nM
[8] = CBPA11-v3-LD3v3, A-1155463 1000 nM
[9] = CBPA11-v3-LD3v3, A-1155463 3180 nM

CN(C)CC#Cc1ccc(OCCCc2sc(N3CCc4cccc(C(=O)Nc5nc6ccccc6s5)c4C3)nc2C(=O)O)c(F)c1 [A-1155463]
Normalized data Figure 5e (CBPA11-v3, A-1155463 1000 nM): 81.2661 and 84.4942 and 85.1885
Normalized data of Figure 5b (CBPA11-v3, A-1155463 1000 nM): 77.1257 and 88.7382 and 83.2133
Raw data of Figure 5b (CBPA11-v3, A-1155463 1000 nM): 414.242 and 467.209 and 437.572
Raw data of Independent repeat of CBPA11-v3 vs CBPA11-v3-LD3v3 (CBPA11-v3, A-1155463 1000 nM): 429.812 and 444.52 and 449.13
Raw data of Independent repeat of CBPA11-v3 vs CBPA11-v3-LD3v3 (CBPA11-v3, A-1155463 3160 nM): 188.374 and 250.833 and 293.834
Normalized data Figure 5e (CBPA11-v3, A-1155463 3180 nM): 35.6165 and 47.6783 and 55.7329
Normalized data of Figure 5b (CBPA11-v3, A-1155463 3180 nM): 69.9852 and 73.5971 and 71.687
Raw data Figure 5e (CBPA11-v3, A-1155463 3180 nM): 250.833 and 293.834
Raw data of Figure 5b (CBPA11-v3, A-1155463 3180 nM): 375.891 and 387.491 and 376.961
Normalized data of Figure 5b (CBPA11-v3, A-1155463 10000 nM): 33.3676 and 35.0593 and 32.1412
Raw data Figure 5e (CBPA11-v3, A-1155463 10000 nM): 69.4522 and 75.5808 and 84.1281
Raw data of Figure 5b (CBPA11-v3, A-1155463 10000 nM): 179.218 and 184.588 and 169.013
Normalized data Figure 5e (CBPA11-v3-BclXLv2, A-1155463 1 nM): 21.2301 and 20.9054 and 25.1683
Normalized data Figure 5e (CBPA11-v3-BclXLv2, A-1155463 3.18 nM): 36.7849 and 34.3141 and 39.7967
Normalized data Figure 5e (CBPA11-v3-BclXLv2, A-1155463 10 nM): 81.6336 and 75.0518 and 82.9089
Normalized data Figure 5e (CBPA11-v3-BclXLv2, A-1155463 31.8 nM): 90.6446 and 90.5045 and 89.528
Normalized data Figure 5e (CBPA11-v3-BclXLv2, A-1155463 100 nM): 100
Normalized data Figure 5e (CBPA11-v3-BclXLv2, A-1155463 318 nM): 94.0748 and 83.4986 and 97.6461
Normalized data Figure 5e (CBPA11-v3-BclXLv2, A-1155463 1000 nM): 82.1634 and 70.2925 and 84.8015
Normalized data Figure 5e (CBPA11-v3-BclXLv2, A-1155463 3180 nM): 56.5379 and 50.558 and 54.1989
Normalized data Figure 5e [1]: 20.2076 and 19.0615 and 22.8054
Raw data Figure 5e [1]: 80.3813 and 74.5359 and 94.7265
Raw data of Independent repeat of CBPA11-v3 vs CBPA11-v3-LD3v3 (CBPA11-v3-LD3v3, A-1155463 0.01 nM): 22.6826 and 23.3953 and 23.1684
Normalized data of Figure 5b [2]: 18.3263 and 15.7809 and 17.6916
Raw data of Figure 5b [2]: 15.5654 and 14.7861 and 18.9282
Raw data of Independent repeat of CBPA11-v3 vs CBPA11-v3-LD3v3 [2]: 39.675 and 38.1934 and 39.412
Raw data of Independent repeat of CBPA11-v3 vs CBPA11-v3-LD3v3 (CBPA11-v3-LD3v3, A-1155463 3.16 nM): 41.6393 and 41.4109 and 44.6799
Normalized data of Figure 5b [3]: 21.7199 and 21.0211 and 18.3728
Raw data of Figure 5b [3]: 18.4478 and 19.6959 and 19.6571
Normalized data of Figure 5b [4]: 42.8939 and 42.6676 and 37.1804
Raw data of Figure 5b [4]: 36.4319 and 39.9778 and 39.7793
Raw data of Independent repeat of CBPA11-v3 vs CBPA11-v3-LD3v3 [4]: 121.488 and 115.434 and 117.733
Raw data of Independent repeat of CBPA11-v3 vs CBPA11-v3-LD3v3 (CBPA11-v3-LD3v3, A-1155463 31.6 nM): 175.057 and 186.814 and 198.727
Normalized data of Figure 5b [5]: 100 and 85.1231 and 93.5368
Raw data of Figure 5b [5]: 84.9348 and 79.7569 and 100.075
Normalized data of Figure 5b [6]: 98.4645 and 100
Raw data of Figure 5b [6]: 83.6306
Raw data of Independent repeat of CBPA11-v3 vs CBPA11-v3-LD3v3 [6]: 212.624 and 240.137 and 273.777
Raw data of Independent repeat of CBPA11-v3 vs CBPA11-v3-LD3v3 (CBPA11-v3-LD3v3, A-1155463 316 nM): 197.006 and 197.385 and 185.58
Normalized data of Figure 5b [7]: 66.0363 and 74.9346 and 74.5506
Raw data of Figure 5b [7]: 56.0878 and 70.2108 and 79.7618
Normalized data of Figure 5b [8]: 44.7107 and 39.495 and 38.775
Raw data of Figure 5b [8]: 37.975 and 37.0053 and 41.4854
Raw data of Independent repeat of CBPA11-v3 vs CBPA11-v3-LD3v3 [8]: 89.9783 and 83.2851 and 69.3694
Raw data of Independent repeat of CBPA11-v3 vs CBPA11-v3-LD3v3 (CBPA11-v3-LD3v3, A-1155463 3160 nM): 42.2434 and 33.2038 and 38.7983
Normalized data of Figure 5b [9]: 16.4914 and 15.345 and 15.1706
Raw data of Figure 5b [9]: 14.007 and 14.3777 and 16.2311

— article PMC11062894, “Protein-based bandpass filters for controlling cellular signaling with chemical inputs” (Nature Chemical Biology, 2023)
